Data set [1] can be described thus: Partition equilibrium in reactor pressurized with CO2, in presence and absence of alkalinity (NaHCO3, Na2CO3), back titration.
Description: In the initial tests, 100 mL of heptol and 300 mL of water (with or without salinity) were used, with the addition of acidic species in the organic phase, in order to verify migration to the aqueous phase. As a rule, the system was kept under agitation at 500 rpm for 8 min, followed by rest for 10 min and, finally, collection of 50.0 mL aliquots of the aqueous phase for titrimetric analysis.
A 316 stainless steel alloy reactor (Parr®) (capacity for 600 mL and operational up to 20 MPa pressure) was used. For this purpose, a temperature range between 25° C. and 80° C. and pressure between 0.1 MPa and 1.0 MPa were used, and the reactor was pressurized with CO2. Thus, the results were compared (in terms of migration of the acidic species (%, mol) by means of back titrations) and the influence of pressure and temperature on the partition was estimated, as well as possible synergistic effects with the sources of alkalinity added to the aqueous phase.
Previously, the back titration procedure was internalized and optimized (Example 1), ensuring that the reproducibility of the measurements was adequate (standard deviation values below 10%, for example) and that the recoveries were close to what was expected based on the purity of the reagents (i.e., close to or above 90%). […] Control experiments were performed (measuring the availability of the species in an aqueous medium, without using the reactor) by solubilizing the organic acid directly in the aqueous phase and titrating a 10.0 mL aliquot; the same way, experiments were performed in the reactor based on the standardization of heptol and salinity already discussed (3.5%).
Data set [2] can be described thus: Partition equilibrium in the presence of demulsifiers (Dissolvan 961, Dissolvan 974).
Excerpt: Finally, neutralization titration with a standardized NaOH titrant solution was used to determine the effect on the partition equilibrium for four acidic species (the same as in the other examples, except for dicyclohexylacetic acid).
Data set [3] is described as follows: Partition equilibrium under the influence of salinity (NaCl), glass reactor, neutralization titration. Type of data set: physicochemical. To be noted: for Salting out effect (reduction in the number of moles contained in the aqueous phase): 30% (m·v^−1) NaCl versus tests without salinity. On the procedure:
The variation in salinity (and its effect on acidic species) is due to the large variation in salinity found between the portions of bottom-hole water, middle-well water and surface water. Thus, systems with salinity (i.e., NaCl) between 3.5 and 30% (m·v^−1) were tested in a glass reactor, and neutralization titration was performed (in triplicate analysis), as previously described. Furthermore, the experimental results were generated in triplicate, using 99% NaCl (Sigma-Aldrich) with five acidic species.

Experiment in data set [4]: as above
The format is physicochemical. Particulars: Salinity 0 (%, m · m^−1) NaCl.

[5] abbreviates: 25° C. and 1.0 MPa CO2, no alkalinity.
Setting [6] is: 80° C. and 1.0 MPa CO2, no alkalinity.
The mark [7] stands for this setting: Na2CO3 + NaHCO3, 25° C. and 0.1 MPa.
[8] abbreviates: Na2CO3 + NaHCO3, 25° C. and 1.0 MPa CO2.
Where [9] appears, read: Na2CO3 + NaHCO3, 80° C. and 1.0 MPa CO2.
[10] abbreviates: Reference (heptol + 3.5% NaCl), no alkalinity.
Where [11] appears, read: Absence of ions (no demulsifier), salinity 3.5%.
Setting [12] is: Salinity 3.5 (%, m · m^−1) NaCl.
The mark [13] stands for this setting: Salinity 18.0 (%, m · m^−1) NaCl.
The mark [14] stands for this setting: Salinity 30.0 (%, m · m^−1) NaCl.

The structures appear in SMILES notation. Values joined by “and” are separate entries in the source; they are usually repeats but may differ in a detail not shown here. Equal values may be shown once.

As for `O=C(O)c1ccccc1` [Benzoic Acid, benzoic acid], the Migration is 64.4 % mol in data set [1] (setting [5]); 59.3 % mol in data set [1] (setting [6]); 49.3 % mol in data set [1] (setting [7]); 100 % mol in data set [1] (setting [8]); 88.3 % mol in data set [1] (setting [9]); 53.6 % mol in data set [1] (NaHCO3, 25° C. and 0.1 MPa). Moreover, the Migration was 93.3 % mol in data set [1] (NaHCO3, 25° C. and 1.0 MPa CO2); 88.9 % mol and 88.6 % mol in data set [1] (NaHCO3, 80° C. and 1.0 MPa CO2); 82.0±3.0 % mol and 82 % mol in data set [1] (setting [10]); 82.0 %, mol in data set [2] (setting [11]); 62.3 %, mol in data set [2] (D961 50 mg · L^−1); 70.3 %, mol in data set [2] (D961 100 mg · L^−1). For the same compound, the Migration in data set [2] (D961 1000 mg · L^−1) is reported as 68.4 %, mol; in data set [2] (D974 50 mg · L^−1) it was 63.1 %, mol; in data set [2] (D974 100 mg · L^−1) it was 57.3 %, mol; in data set [2] (D974 1000 mg · L^−1), 59.7 %, mol; in data set [3] (setting [12]) it was 83.0 %, mol; in data set [3] (setting [13]), 41.0 %, mol. The Migration in data set [3] (setting [14]) is on record as 22.5 %, mol; in data set [3] (Salinity 30.0 (%, m · m^−1) NaCl, listed as benzoic acid) it was 22.51 %, mol; in data set [4], 82.9 %, mol. In addition, the “Salting out effect (reduction in the number of moles contained in the aqueous phase)” value in data set [3] was “approximately 400%”.
Turning to `O=C(O)CCCCC1CCCCC1` [Cyclohexanepentanoic Acid, cyclohexanepentanoic acid], the Migration result in data set [1] (setting [5]) is “not quantifiable”; in data set [1] (setting [6]) it was “not quantifiable”; in data set [1] (setting [7]), 71.1 % mol; in data set [1] (setting [8]), 100.0 % mol; in data set [1] (setting [9]), 100.0 % mol; in data set [1] (NaHCO3, 25° C. and 0.1 MPa) it was 82.7 % mol. For the same compound, the Migration in data set [1] (NaHCO3, 25° C. and 1.0 MPa CO2) is 100.0 % mol; in data set [1] (NaHCO3, 80° C. and 1.0 MPa CO2), 100.0 % mol; in data set [1] (setting [10]), 4.9 % mol and 4.3 % mol; in data set [2] (setting [11]) it was 4.9 %, mol; in data set [2] (D961 50 mg · L^−1) it was 5.42 %, mol; in data set [2] (D961 100 mg · L^−1) it was 5.16 %, mol. The Migration in data set [2] (D961 1000 mg · L^−1) is listed as 10.2 %, mol; in data set [2] (D974 50 mg · L^−1), 4.78 %, mol; in data set [2] (D974 100 mg · L^−1) it was 5.26 %, mol; in data set [2] (D974 1000 mg · L^−1), 12.80 %, mol; in data set [3] (setting [12]) it was 5.5 %, mol; in data set [3] (setting [13]) it was 5.5 %, mol. The Migration in data set [3] (setting [14]) is recorded as 4.8 %, mol; in data set [4] it was 4.9 %, mol. In addition, the “Increase in migration to the aqueous phase with demulsifier” value in data set [2] (addition of 1000 mg·L^−1 demulsifier) was around 100%. In data set [3] (0-30% NaCl), the “Migration to aqueous medium, approximate level over the salinity study” value is around 5%. In addition, in data set [3] (3.5-30% NaCl, 95% reliability), the “Effect of the addition of salinity on migration” value was “no significant effect”.
Regarding `CCCCC(=O)O` [Pentanoic Acid, pentanoic acid], the Migration is listed as 100 % mol in data set [1] (setting [5]); 82.4 % mol in data set [1] (setting [6]); 61.3 % mol in data set [1] (setting [7]); 100 % mol in data set [1] (setting [8]); 79.9 % mol in data set [1] (setting [9]); 69.2 % mol in data set [1] (NaHCO3, 25° C. and 0.1 MPa). Besides, the Migration in data set [1] (NaHCO3, 25° C. and 1.0 MPa CO2) is 100 % mol; in data set [1] (NaHCO3, 80° C. and 1.0 MPa CO2), 96.3 % mol; in data set [1] (setting [10]) it was 77 % mol; in data set [2] (setting [11]) it was 77.0 %, mol; in data set [2] (D961 50 mg · L^−1), 67.0 %, mol; in data set [2] (D961 100 mg · L^−1), 70.0 %, mol. The Migration was 75.7 %, mol in data set [2] (D961 1000 mg · L^−1); 66.9 %, mol in data set [2] (D974 50 mg · L^−1); 74.3 %, mol in data set [2] (D974 100 mg · L^−1); 74.8 %, mol in data set [2] (D974 1000 mg · L^−1); 73.3 %, mol in data set [3] (setting [12]); 40.0 %, mol in data set [3] (setting [13]). Besides, the Migration in data set [3] (setting [14]) is reported as 23.3 %, mol; in data set [4] it was 76.7 %, mol. Further, the “Effect of demulsifiers on partition equilibrium” value in data set [2] (up to 1000 mg·L^−1, 95% significance) is reported as “no observable effect”. Moreover, the “Salting out effect (reduction in the number of moles contained in the aqueous phase)” value in data set [3] is listed as “approximately 300%”.
